Series [1] deals with Pseudomonas aeruginosa PA14. In words: Pyocyanin assay in Pseudomonas aeruginosa. The series is classed as cell-based. To be noted: PA14, 16 h, read-out: IC50 Pyocyanin. Here is the method: 1.2.2 Pyocyanin assay in Pseudomonas aeruginosa
Inhibition of pyocyanin biosynthesis of compounds was measured spectrophotometrically as previously described.[2] Pseudomonas aeruginosa PA14 was grown in rich medium for 16 h under agitation with and without compound. Pyocyanin was extracted from cultures with chloroform, then re-extracted with 0.2 M HCl and quantified photometrically (520 nm). IC50 values were determined from dose-response curves of compounds using at least six different concentrations and fitting with non-linear regression analysis (OriginPro 2017–2020, Originlab Corporation). […]

Series [2] concerns Pseudomonas aeruginosa strain RP73. Briefly: Alkylquinolone quantification, strain RP73. The series is classed as cell-based. To be noted: RP73, 17 h. The method, then:
re-extracted with 0.2 M HCl and quantified photometrically (520 nm). IC50 values were determined from dose-response curves of compounds using at least six different concentrations and fitting with non-linear regression analysis (OriginPro 2017–2020, Originlab Corporation).
1.2.3 Alkylquinolone quantification
Inhibition of alkylquinolone (AQ) signal molecule biosynthesis of compound 24 was analyzed via LC-ESI-MS/MS. Extracellular concentrations of the AQs PQS (2-heptyl-3-hydroxy-4-quinolone), HHQ (2-heptyl-4-quinolone), HQNO (N-oxo-2-heptyl-4-Hydroxyquinoline), 2-AA (2-aminoacetophenone) were measured from supernatants of cultures incubated with or without compound for 17 h. 5,6,7,8-Tetradeutero-2-heptyl-4(1H)-quinolone (HHQ-d4) was added as internal standard before sample preparation. IC50 values were calculated according to the procedure of the pyocyanin assay (see above). LC-ESI-MS/MS conditions were as follows: Dionex Ultimate 3000 HPLC instrument parameters: Zorbax Eclipse XDB 80 Å C18 5 µm 4.6 x 50 mm (Agilent, Santa Clara, CA, USA); eluent A – H2O with 0.1% trifluoroacetic acid (TFA), 0.1% pentafluoropropionic acid (PFPA), 0.1% heptafluorobutyric acid (HFBA); eluent B – acetonitrile with 0.1% TFA, 0.1% PFPA, 0.1% HFBA; isocratic 50% A; flow – 0.7 mL/min. TSQ Quantum Access Max (Thermo Fisher Scientific, Waltham, MA, USA) instrument parameters: Spray voltage 3500 V, vaporizer temperature 370 °C, sheath gas pressure 35 psi, aux gas pressure 30 psi, capillary temperature 270 °C, collision pressure 1.5 mTorr, positive ionization mode. For AQ analyte reaction monitoring parameters please see Table S1.
Table S1. LC-ESI-MS/MS reaction monitoring parameters of AQ analytes in positive ionization mode. precursor product ion collision tube lens retention ion m/z m/z energy (V) offset (V) time (min)
1.2.4 Biofilm-formation assay […]
(Innvotech, Edmonton, CA). An overnight culture of PA14 was centrifuged (10 min, 5000 x g). The supernatant including extracellular polymers was removed and the pellet washed with 10 mL of LB medium. Centrifugation was repeated, the supernatant discarded, and the pellet resuspended in 5 mL of LB. OD was adjusted to 0.2. The bacteria were further diluted in LB medium, followed by addition of the target compound or DMSO control to give OD 0.1 and 1% DMSO. 150 µL were added to each well of the 96-well plate. The outer wells were used as blanks containing 150 µL of 1% DMSO in LB. Six replicates per sample were distributed evenly across the plate, with every row containing one replicate of each sample. The well plate was covered with the peg lid. One layer of parafilm was wrapped around the biofilm inoculator. The inoculator was incubated at 37 °C, static for 24 h with a beaker of H2O ensuring humidity. […]

The test system of series [3] is 14 PA clinical isolates from bronchiectasis patients. In words: Pyocyanin inhibition assay in clinical isolates. The series is classed as cell-based, Pseudomonas aeruginosa. As to conditions: 2 × 10^−6 M 24, LB-medium, 16 h. The method, then: Pyoverdine determinations. Precultures of each strain were grown 20 h at 37°C in M9 minimal […]
with 30 mM succinate, 2 mM MgSO , 10 μM FeSO and 2.5 mL L−1 of trace elements solution.[10] Next, […]
5 µl of each culture were transferred to 10 ml of M9 minimal medium devoid of iron and trace element solution, and cultured again for 24 h at 37°C with constant shaking. After incubation, the OD600 of the cultures was determined: The cell contained in 1 mL medium were harvested by centrifugation (5 min; 14,000 rpm) and the absorbance at 405 nm (A405nm) of 0.8 ml of the supernatant was determined spectrophotometrically and normalized to the OD600 of the culture measured before (i.e. A405nm, OD600-1). PA14 and PAO1 were also assayed as controls. The experiments were carried out at least in triplicates.
Pyocyanin inhibition assay. The inhibition of pyocyanin production in the clinical isolates (CIs) and the type strains (PA14 and PAO1) was tested by the treatment of LB-grown cultures incubated for 16 h at 37°C with constant shaking with 2 µM of 24/DMSO or with 2 µl of DMSO as control. Pyocyanin extraction and quantification were carried out as described in section 1.2.2. Pyocyanin concentrations (μg mL −1) were calculated by multiplication of its absorbance at 520 nm with a […]
correction factor of 17.072, and normalized to the OD600 of the culture.

The next series concerns the target CYP1A (Homo sapiens, UniProt P05177). In words: Cytochrome P450 inhibition assay, CYP1A. Format: in vitro ADME. Here is the method:
1.4.4 Pharmacokinetic and off-target functional assays (Cyprotex)
Compound 24 was assayed at Cyprotex in functional assays for interference with important off-targets as well as important pharmacokinetic parameters. With the exception of plasma protein binding, a dose-response relationship was studied in order to calculate IC50 values.
Table S10. Information on in vitro ADMET assays performed at Cyprotex. […]
(§1) An increase in the number of colonies of at least two-fold over baseline (mean + SD of the vehicle control) and a dose response indicate a positive response. An […]
(§2) different from the vehicle control.
(§3) Where indicated, S9 fraction from the livers of Aroclor 1254-treated rats were included in the incubation at a final concentration of 4.5%. A NADPH-regenerating system was also included to ensure a steady supply of reducing equivalents.

The target of a further series is T1, TRPC6 channel (Homo sapiens, UniProt Q9Y210).
T1 construct: host or cells: HEK293 cells
In words: Ion channel profiling at Charles River: TRPC6. As to conditions: expressed in HEK293 cells; read-out: ESTIMATED IC50. The series is classed as cell-based. The method, then: 1.4.3 Ion Channel Profiling at Charles River
Table S9. Compound 24 was tested against the following ion channels at Charles River Laboratories. […]
ScreenPatch Assay Kv1.3 potassium channel (human KCNA3 gene) expressed in CHO […]
FLIPR Assay expressed in HEK293 cells
GABAA α5/β3/γ2 ionotropic receptor (human GABRA5, GABRB3, >30 and GABRG2 genes, expressed in HEK293 cells […]
TRPC6 channel (human TRPC6 gene) expressed in HEK293 cells >30 […]
as §1, §2, §3

Where two headings read alike, the source gives them in different places.

Sequence of CYP1A (P05177 2-516): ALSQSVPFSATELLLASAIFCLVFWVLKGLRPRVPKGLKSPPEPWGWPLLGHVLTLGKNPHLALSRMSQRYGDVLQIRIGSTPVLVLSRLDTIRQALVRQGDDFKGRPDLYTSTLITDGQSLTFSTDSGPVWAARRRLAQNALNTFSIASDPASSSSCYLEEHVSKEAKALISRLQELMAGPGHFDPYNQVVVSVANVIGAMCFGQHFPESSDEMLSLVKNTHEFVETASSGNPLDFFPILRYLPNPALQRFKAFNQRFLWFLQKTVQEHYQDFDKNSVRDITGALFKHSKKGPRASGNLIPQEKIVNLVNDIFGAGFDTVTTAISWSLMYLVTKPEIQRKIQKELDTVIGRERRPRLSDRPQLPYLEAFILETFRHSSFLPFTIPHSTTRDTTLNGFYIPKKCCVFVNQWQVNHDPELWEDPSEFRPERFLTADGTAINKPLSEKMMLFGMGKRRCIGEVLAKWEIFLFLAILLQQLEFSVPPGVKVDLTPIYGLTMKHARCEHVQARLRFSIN
T1 sequence (Q9Y210 whole entry): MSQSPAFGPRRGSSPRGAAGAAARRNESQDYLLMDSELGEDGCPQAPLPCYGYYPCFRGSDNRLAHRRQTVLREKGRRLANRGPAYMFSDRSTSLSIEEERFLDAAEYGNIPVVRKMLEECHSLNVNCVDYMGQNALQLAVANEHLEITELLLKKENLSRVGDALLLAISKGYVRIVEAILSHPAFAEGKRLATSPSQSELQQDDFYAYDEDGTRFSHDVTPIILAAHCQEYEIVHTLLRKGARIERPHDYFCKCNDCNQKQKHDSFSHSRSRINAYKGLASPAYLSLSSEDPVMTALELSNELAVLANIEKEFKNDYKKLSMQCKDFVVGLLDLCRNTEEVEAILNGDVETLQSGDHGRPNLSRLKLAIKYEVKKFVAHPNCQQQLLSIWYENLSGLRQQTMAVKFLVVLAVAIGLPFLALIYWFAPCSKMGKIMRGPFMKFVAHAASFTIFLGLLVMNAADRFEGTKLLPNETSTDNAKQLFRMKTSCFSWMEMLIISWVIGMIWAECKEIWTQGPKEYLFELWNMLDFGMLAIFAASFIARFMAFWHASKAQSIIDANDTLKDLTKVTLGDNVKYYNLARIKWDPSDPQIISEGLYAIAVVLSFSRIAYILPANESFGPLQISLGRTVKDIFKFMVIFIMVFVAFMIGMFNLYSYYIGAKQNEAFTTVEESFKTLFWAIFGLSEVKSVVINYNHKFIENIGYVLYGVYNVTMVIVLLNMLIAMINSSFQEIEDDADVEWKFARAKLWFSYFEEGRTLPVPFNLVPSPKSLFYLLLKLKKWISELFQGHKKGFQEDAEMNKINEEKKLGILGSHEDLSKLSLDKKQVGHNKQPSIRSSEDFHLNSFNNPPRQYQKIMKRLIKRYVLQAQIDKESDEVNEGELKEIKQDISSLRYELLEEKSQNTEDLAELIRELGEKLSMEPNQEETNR

In general, IC50 refers to the concentration that gives 50% inhibition. `CC(C)Oc1ccc(-c2ncc(CNc3ccnc(C(F)(F)F)c3)cn2)cc1Cl` [Compound 24]: the IC50 in series [1] was 245 ± 40 nM; in series [2] (read-out: IC50 RP73, 2‐AA biosynthesis) it was 213 nM; in series [2] (read-out: IC50 RP73, HHQ biosynthesis), 453 nM; in series [2] (read-out: IC50 RP73, HQNO biosynthesis) it was 230 nM; in series [2] (read-out: IC50 RP73, PQS biosynthesis), 160 nM; against CYP1A, above 25000 nM. Also, the half-inhibitory concentration (IC50) at TRPC6 channel is above 30000 nM. Besides, in series [3], the “Production of pyocyanin by clinical isolates” value is “dramatic reduction”.

The values are drawn from article PMC9929129, “Towards Translation of PqsR Inverse Agonists: From In Vitro Efficacy Optimization to In Vivo Proof‐of‐Principle” (Advanced Science, 2023).
